US7901707B2, “Biodegradable biocompatible implant and method of manufacturing same” (priority 2005, dated 2011)
In brackets after ≈: the same amount, converted by molar mass.

How the values were obtained:
ovarian cancer cells = assay: MTT assay, combination of PTX and CPT; assay type: cell-based; settings: 48 hour
Protocol: (§1) Briefly, cells were diluted with culture medium to the seeding density (10^5 cells/mL) and suspended in 96-well tissue culture plates (100 μL/well), and preincubated at 37° C. overnight. Cells were then treated continuously with 10 μL of various concentrations of the anticancer agents to obtain a dose-response curve for each agent. For combination assays, cells were also treated continuously with a total of with 10 μL of various concentrations of PTX and CPT. Each drug concentration was as follows: 6.25-200 ng/mL PTX and 1-50 μg/mL CPT.
(§2) After incubation of 24, 48 and 72 h, 10 μL of MTT solution (5 mg/mL of PBS, filtered) was added to each well and the plates were further incubated for 4 h. 100 μL of extraction buffer (20% w/v SDS dissolved at 37° C. in a solution of 50% Dimethylformamide/50% H2O, 2.5% of 80% Acetic acid 2.5% of 1N HCl (ph 4.7)) was added to solubilize the MTT-formazan product. Absorbance at 570 nm was measured with a microplate reader (SPECTRAmax® PLUS384, Molecular Devices, Sunnyvale Calif.—U.S.A.). Dose response curves were plotted as a percentage of the control cell number, which was obtained from the no-drug exposure sample.

SKOV-3 cells = assay: In-vitro cytotoxicity of implant, implant containing PTX and free PTX (MTT); assay type: cell-based, human
Protocol: In-vitro cytoxicity of the implant, implant containing PTX and free PTX. The SKOV-3 cells were plated in 6-well plates and cultured in RPMI 1640 supplemented with 1% penicillin/streptomycin solution and 10% fetal bovine serum. The cell line was grown at 37° C. in a humidified incubator equilibrated with 5% CO2. Medium was replaced three times a week and cells were typsinised and subcultured every five days. […] Likewise, PoLi implants of varying sizes were added to the wells. The implants were swelled in 70% ethanol for sterilization purposes prior to incubation with cells. Following a 48 hour incubation period the cell viability was measured using the MTT assay. The MTT dye was added to each well following the specific time period and incubated for 2 hours at 37° C. Cells were then solubilized in 10% SDS. Formazan dye concentrations were then detected using a microplate reader (BioRad) at […] wavelength of 570 nm.

SKOV3 cells = assay: Cell proliferation assay (MTT), sustained exposure; assay type: cell-based, human
Protocol: as §1
as §2, with “sample. A semilog scale was used when necessary: IC50 of CPT for SKOV3 and CAOV3.” for “sample.”

IC50 (ovarian cancer cells; PTX alone) [µg/mL]	decrease in IC50, 24 versus 72 hour time point (SKOV3 cells) [fold]	Structure (SMILES)	CPT IC50 (ovarian cancer cells; CPT alone) [µg/mL]	reduction in cells (SKOV-3 cells; 0.050 μg of free PTX, 48 hours) [%]	cell reduction (SKOV-3 cells; 0.2 μg of free PTX, 48 hours) [%]	IC50 (SKOV-3 cells; Homo sapiens, SK-OV-3, 48 hours of incubation) [µg/mL]
–	–	N.N.O=C([O-])C1(C(=O)[O-])CCC1.[Pt+2] [CPT, carboplatin]	35	–	–	–
> 0.2	10	CC(=O)O[C@H]1C(=O)[C@@]2(C)[C@H]([C@H](OC(=O)c3ccccc3)[C@]3(O)C[C@H](OC(=O)[C@H](O)[C@@H](NC(=O)c4ccccc4)c4ccccc4)C(C)=C1C3(C)C)[C@]1(OC(C)=O)CO[C@@H]1C[C@@H]2O [PTX, paclitaxel]	–	64	73	0.0347 (≈ 0.0406 µM)
